No end group written: not given here.
Tested on: Foxo3a transcriptional activity in HEK293 cells co-transfected with 14-3-3β
Test: Foxo3a luciferase reporter gene assay
Assay type: cell-based, human
Description: Jurkat cells were cultured in RPMI medium containing phenol red supplemented with 10% (v/v) heat deactivated fetal calf serum and 100 U/mL penicillin/streptomycin at 37°C in humidified atmosphere of 5% CO2. HEK293 cells were cultured in Dulbecco's modified eagle high glucose medium supplied with 10% fetal calf serum and 100 U per mL penicillin/streptomycin. Cell transfection was carried out by Jetprime® according to the manufacturer's recommendation (Polyplus, Illkirch, France).
Forkhead box protein 3a induced transcriptional activity was measured on transiently transfected HEK293 cells (5 × 10^4). The reporter plasmid encoding luciferase under the control of a promotor containing forkhead responsive elements and the human p-Foxo3a-HA plasmid were gifts of Michael Greenberg provided by the Addgene consortium (#1787 and #1789; Brunet et al., [1999]). The plasmids encoding the mouse p-14-3-3 beta-GST protein and the functional forkhead transcription factor were used in a 1.5-fold amount compared to the reporter construct. The transfection was completed after 6 h and the cells could recover for 4 h in growth medium. The cells were serum starved using 1% (v/v) fetal bovine serum in phenol red free DMEM medium supplemented with antibiotics overnight. After 4 h peptide and 24 h of fusicoccin-A treatment the luciferase assay was developed using luciferase development kit from Promega E151 (Wisconsin, United States) and the luminescence was measured on a synergy H4 plate reader (Biotek). Control compounds were the PI3K inhibitors wortmannin and LY294002 (both Sigma Aldrich). The recorded data were normalized to the non-treated control sample. Significance and IC50-values were calculated from at least two biological replicates using GraphPad Prism. Data analysis was performed by non-linear regression using a four parameter Hill equation.
If not stated in detail for the respective single experiment the statistical tests were performed using GraphPad Prism 5.04 (GraphPad, La Jolla, CA) using one-way ANOVA with Bonferonni or Dunnett's Post-hoc test. The number of technical and biological repeats was justified by analysis of error and reproducibility of results. Significance threshold P < 0.05 was applied to all experiments. For the data shown in Figure 3 three individuals for the in vivo experiments were used and each data point was performed in three technical replicates. The pull down experiments shown in Figures 4A,B were performed a single time and the data represent two technical repeats. Gel lanes were loaded with single (1x) or doubled (2x) amount of pull down proteins for better visibility. The data illustrated in Figures 4C,D were performed in two independent experiments. Silver stained gel lanes were evaluated by loading various amounts, and then the amount with optimized staining contrast was loaded and used for in-gel protein digestion. The pull down experiments shown in Figures 4E,F were performed a single time. The Western Blots and the pull down experiment shown in Figure 5 represent experiments in three and two independent experiments, respectively. Experiments in a well-based format (Figure 6) were performed with three technical and two biological replicates. All data illustrated in this manuscript show the mean ± standard deviation (SD) unless stated otherwise. The MS based protein identifications were performed in two technical analyses for each sample.
Figure 6 Foxo3a luciferase reporter assay. The modulation of the Akt/PI3K/Foxo3a pathway by the cyclotide [T20K]kB1 binding to 14-3-3 proteins was investigated. HEK293 cells were transiently transfected with Foxo3a-Luc plasmid encoding luciferase under a promotor with Foxo response elements, Foxo3a and 14-3-3β. For control the reporter plasmid (basal value) was also co-transfected with the single functional effector proteins 14-3-3β or Foxo3a. Cells were treated under starving conditions with peptide or fusicoccin-A (FC-A) for 4 h or 24 h, respectively. […]

Question: With “CGETCVGGTCNTPGCKCSWPVCTRNGLPV (also: bicyclic or more (positions not given here)) [[T20K]kB1, synthetic cyclotide drug candidate, Thr20 to Lys mutant of kalata B1]” as the sequence, how does the “Foxo3a transcriptional activity, effect in words” value (HEK293, luciferase reporter, PI3K inhibitors as controls, peptide 4 h) read?
Answer: Its value is “reduced the transcriptional activity of Foxo3a in a concentration-dependent manner”.

Question: And the IC50 (HEK293 transfected with Foxo3a-Luc, Foxo3a and 14-3-3β, peptide treatment 4 h, IC50 ± SD, two independent experiments, four parameter Hill fit, read-out: IC50, reduction of Foxo3a transcriptional activity (luciferase))?
Answer: Its IC50 is 5.27 ± 0.25 µM.

Question: What about the “effect on 14-3-3/Foxo3a protein complex (suggested)” value (inferred from decreased Foxo3a transcriptional activity in reporter assay) of the same sequence?
Answer: The value was “exerts a stabilizing effect on the 14-3-3/Foxo3a protein complex”.

Source: publication PMC5641551, “Chemical Proteomics for Target Discovery of Head-to-Tail Cyclized Mini-Proteins” (Frontiers in Chemistry, 2017)
